Data: patent US9598384B2, “3-(2-amino-ethyl)-alkylidene)-thiazolidine-2,4-dione and 1-(2-amino-ethyl)-alkylidene-1,3-dihydro-indol-2-one derivatives as selective sphingosine kinase 2 inhibitors” (VIRGINIA COMMONWEALTH UNIVERSITY, priority 2012, dated 2017)

Key:
SphK2 = molecular target: T1, SphK2 (Homo sapiens, UniProt Q9NRA0); experiment: SphK2 activity assay (sphingosine substrate, with kinetic study); type: biochemical; conditions: relative activity vs no inhibitor; compounds at 10 μM (FIGS. 1, 3, 5)
T1 sequence (Q9NRA0 1-654): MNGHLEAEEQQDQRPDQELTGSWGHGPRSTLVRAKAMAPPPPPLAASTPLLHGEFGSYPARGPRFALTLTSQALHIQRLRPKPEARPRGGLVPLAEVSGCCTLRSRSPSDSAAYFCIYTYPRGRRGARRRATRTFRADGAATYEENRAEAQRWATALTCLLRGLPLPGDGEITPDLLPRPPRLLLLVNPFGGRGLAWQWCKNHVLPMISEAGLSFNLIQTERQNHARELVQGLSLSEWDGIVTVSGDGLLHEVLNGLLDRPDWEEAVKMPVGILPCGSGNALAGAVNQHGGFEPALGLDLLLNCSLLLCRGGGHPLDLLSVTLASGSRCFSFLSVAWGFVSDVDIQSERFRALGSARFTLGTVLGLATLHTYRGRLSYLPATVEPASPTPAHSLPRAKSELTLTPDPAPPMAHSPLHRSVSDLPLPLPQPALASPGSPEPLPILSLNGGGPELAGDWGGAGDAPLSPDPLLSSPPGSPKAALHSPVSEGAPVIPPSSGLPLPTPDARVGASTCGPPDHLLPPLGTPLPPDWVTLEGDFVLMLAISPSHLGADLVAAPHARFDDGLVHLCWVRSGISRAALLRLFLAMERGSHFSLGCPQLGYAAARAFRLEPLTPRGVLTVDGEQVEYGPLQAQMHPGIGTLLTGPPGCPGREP

SphK1 = SphK1 (Homo sapiens, UniProt Q9NYA1); experiment: SphK1 activity assay; type: biochemical; conditions: relative activity vs no inhibitor; compounds at 10 μM (FIGS. 1, 4, 6)
Sequence of SphK1 (Q9NYA1 whole entry, species assumed): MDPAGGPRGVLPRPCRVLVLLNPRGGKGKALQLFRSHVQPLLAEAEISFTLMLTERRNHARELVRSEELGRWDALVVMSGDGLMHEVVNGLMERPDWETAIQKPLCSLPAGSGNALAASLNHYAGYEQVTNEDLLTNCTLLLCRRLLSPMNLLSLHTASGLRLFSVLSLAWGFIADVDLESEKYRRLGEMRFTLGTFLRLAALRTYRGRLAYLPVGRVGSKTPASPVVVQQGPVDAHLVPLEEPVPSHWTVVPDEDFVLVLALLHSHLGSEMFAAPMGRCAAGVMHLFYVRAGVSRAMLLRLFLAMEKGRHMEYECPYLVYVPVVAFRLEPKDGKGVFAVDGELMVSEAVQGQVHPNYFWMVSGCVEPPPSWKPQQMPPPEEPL
Protocol: A) SphK1 and SphK2 activities were measured with 5 μM sphingosine in the absence or presence of the indicated concentrations of K145 or 10 μM DMS. Data are expressed as percentage SphK activity in the absence of inhibitor; B) Effect of K145 (10 μM) on activity of the indicated enzymes was tested by SelectScreen Kinase Profiling from Invitrogen. CaMK11β, Ca2+/calmodulin-dependent protein kinase II; CDK2, cyclin-dependent kinase 2; EGFR, Epidermal Growth Factor Receptor; Fyn, Fyn Kinase (p55); ERK2, extracellular signal-regulated kinase 2; ERK1, extracellular signal-regulated kinase 1; PKA, protein kinase A; PKCα, protein kinase C α; P13K, phosphatidylinositide 3-kinase. Data are expressed as percentage of control activity averaged from 2 independent experiments.
FIG. 3. SphK2 was incubated with indicated compounds at 10 μM, then the activity of SphK2 was determined. The data shown here is a relative activity of SphK2 compared to control (no inhibitor, column labeled Sph in the Figure). 96047 is a known SpK2 inhibitor. A5, B26, K25 and QLA13 are known compounds [Li et al. (2009) Bioorg Med Chem Lett 19: 6042-6046; Liu et al. (2012) Eur J Med Chem 47: 125-137] and were tested for purposes of comparison. “A” and “B” refer to different batches of a compound. FIG. 4. SphK1 was incubated with indicated compounds at 10 μM, then the activity of SphK1 was determined. The data shown here is a relative activity of SphK1 compared to control (no inhibitor, column labeled Sph in the Figure). 96091 is a known Spk1 inhibitor. A5, B26, K25 and QLA13 are as above for […]. “A” and “B” refer to different batches of a compound.
FIG. 6. SphK1 was incubated with indicated compounds at 10 μM, then the activity of SphK2 was determined. The data shown here is a relative activity of SphK2 compared to control (no inhibitor).

[1] = tested on: human leukemia U937 cells; experiment: Cell viability assay in human leukemia U937 cells; type: cell-based; conditions: Homo sapiens, U-937; 24 hrs treatment, MTT assay; read-out: IC50 ± SEM, inhibition of U937 cell proliferation
Protocol: Cells were cultured at a density of 5×10^4 (U937) or 1×10^4 (PC-3, DU145, M12, HT29) cells per well in flat bottomed 96-well plates and treated with various concentrations of test compound at 37° C. (5% CO2). After 24 h, 20 μL of CellTiter 96® Aqueous One Solution Reagent (Promega, Madison, Wis.) was added to each well according to the manufacturer's instructions. After 1 hour, the cell viability was determined by measuring the absorbance at 490 nm using a micro-plate reader.

U937 cells = experiment: Cell apoptosis assay, annexin V/PI flow cytometry; type: cell-based, human; conditions: 24 hrs treatment
Protocol: Apoptosis was measured by flow cytometry using annexin V/propidium iodide (PI) as staining reagent. […] The cells were then incubated with annexin V-fluorescein isothiocyanate (FITC) (BD PharMingen, San Diego, Calif.) and 5 μg/mL propidium iodide (PI), and incubated for 15 minutes at room temperature in the dark per the manufacturer's instructions. The samples were analyzed by flow cytometry using a Becton Dickinson FACScan (Becton Dickinson, San Jose, Calif.) within 1 hr to determine the percentage of cells displaying annexin V staining (early apoptosis) or both annexin V and PI staining (late apoptosis).

[2] = tested on: Raf/MEK/ERK and PI3K/Akt signaling pathways; experiment: Western blot analysis of ERK and Akt phosphorylation; type: cell-based; conditions: Western blot, FIGS. 9 and 10
Protocol: Cells (5×10^5 per ml) were treated with various concentrations of test compound at 37° C. (5% CO2) for 3 hrs, then stimulated with TPA at a final concentration of 200 nM for 20 min. Samples from whole-cell pellets were prepared and 30 μg protein for each condition was subjected to SDS-PAGE, transferred onto a PVDF membrane, and blocked with 5% fat-free milk for 30 min. The membrane is probed with primary antibodies overnight at 4° C. followed by incubation with horseradish peroxidase-labeled anti-mouse IgG (1:5000, BD Bioscience). The immunoreactive bands are detected by chemilluminescence methods (Pierce) and visualized on Kodak Omat film. The following primary antibodies were used: phospho-p44/42 MAPK (ERK1/2, Thr202/Tyr204), p44/42 MAPK, phospho-p90RSK (Thr359/Ser363), RSK1/RSK2/RSK3 (Cell Signaling). Blots were reprobed with antibodies against α-tubulin to ensure equal loading and transfer of proteins.

U937 xenograft [3] = experiment: U937 xenografts in nude mice, i.p. administration; type: in vivo, BALB/c-nu mice; conditions: 15 mg/kg daily i.p.
Protocol: D) Body weights of mice throughout treatment. Data are expressed as mean value±SD. *P<0.05 compared to control group.
Female nude mice (BALB/c-nu, n=7) were inoculated with 3×10^7 U937 cells subcutaneously in the right flank. After 7 days of implant of U937 cells, mice were treated daily with Vehicle (control), or Tamibarotene (15 mg/Kg, positive control), or Formula III (K145) (15 mg/Kg) by i.p. administration. Tumor size was measured every other day.

U937 xenograft [4] = experiment: U937 xenografts in nude mice, oral administration; conditions: oral gavage daily 15 days; K145 50 mg/kg, tamibarotene 20 mg/kg
Protocol: BALB/c-nu mice (n=7) with palpable U937 xenograft were treated daily with vehicle, tamibarotene (20 mg/kg), or K145 (50 mg/kg) for 15 days by oral gavage. After treatment, animals were sacrificed and tumors were removed, weighed and images were taken. […] Data are expressed as mean value±SEM. *P<0.05 compared to control group.
In this experiment, K145 was given at 50 mg/kg by oral gavage daily for 15 days and tumor volume and animal weights were measured every other day. Again, tamibarotene (20 mg/kg) was used as positive control.

Structure (SMILES)	IC50 [1]	inhibition of SphK2 activity (in words) (SphK2)	inhibition of SphK1 activity (in words) (SphK1)	also measured
CCCCCCCOc1ccc(CC/C=C2\SC(=O)N(CCNC(=N)N)C2=O)cc1 [K11167]	–	inhibits both Sphk1 and Sphk2	inhibits both Sphk1 and Sphk2	–
CCCCCCCCCCCOc1ccc(CC/C=C2\SC(=O)N(CCN)C2=O)cc1 [KLII123]	–	inhibited SphK2 selectively	did not inhibit SphK1 or inhibited SphK1 to a lesser extent	–
CCCCCCCCCOc1ccc(CC/C=C2\SC(=O)N(CCN)C2=O)cc1 [KLII157]	–	inhibited SphK2 selectively	did not inhibit SphK1 or inhibited SphK1 to a lesser extent	–
NCCN1C(=O)C(=CCCC2CCCCC2)c2ccccc21 [S-II-36, 1-(2-aminoethyl)-3-(3-cyclohexylpropylidene)indolin-2-one]	2700 ± 200 nM	–	–	–
NCCN1C(=O)C(=CCCC2CC2)c2ccccc21 [S-II-40, 1-(2-aminoethyl)-3-(3-cyclopropylpropylidene)indolin-2-one]	1160 ± 50 nM	–	–	–
NCCN1C(=O)C(=CCCC23CC4CC(CC(C4)C2)C3)c2ccccc21 [S-II-73, 3-(3-(3r,5r,7r)-adamantan-1-yl)propylidene)-1-(2-aminoethyl)indolin-2-one]	–	inhibited SphK2 selectively	did not inhibit SphK1 or inhibited SphK1 to a lesser extent	–
CCCCOc1ccc(CCC=C2C(=O)N(CCN)c3ccccc32)cc1 [S-II-78, 1-(2-aminoethyl)-3-(3-(4-butoxyphenyl)propylidene)indolin-2-one]	4600 ± 800 nM	–	–	–
CCCCCCCOc1ccc(CC/C=C2/C(=O)N(CCN)c3ccccc32)cc1 [S-II-104]	–	inhibited SphK2 selectively	did not inhibit SphK1 or inhibited SphK1 to a lesser extent	–
CCCCCCCCC=C1C(=O)N(CCN)c2ccccc21 [S-II-129, 1-(2-aminoethyl)-3-nonylideneindolin-2-one]	2128 ± 6 nM	–	–	–
CC1(C)CCC(C)(C)c2cc(NC(=O)c3ccc(C(=O)O)cc3)ccc21 [tamibarotene, reference compound]	–	–	–	TGI (tumor growth inhibition) (U937 xenograft [3]; 17 days): 50.4%; body weights of mice (U937 xenograft [3]; compared with vehicle): caused body weight decreases; TGI (tumor growth inhibition) (U937 xenograft [4]): 33.37%

The next lines start with results.

IC50 [1]	Structure (SMILES)	inhibition of SphK2 activity (in words) (SphK2)	inhibition of SphK1 activity (in words) (SphK1)	also measured
2690 ± 60 nM	NCCN1C(=O)C(=CCCc2ccc(F)cc2)c2ccccc21 [S-II-39, 1-(2-aminoethyl)-3-(3-(4-fluorophenyl)propylidene)indolin-2-one]	–	–	–
4000 ± 700 nM	NCCN1C(=O)C(=CCCc2ccc(Cl)cc2)c2ccccc21 [S-II-60, 1-(2-aminoethyl)-3-(3-(4-chlorophenyl)propylidene)indolin-2-one]	–	–	–
3600 ± 200 nM	NCCN1C(=O)C(=CCCc2ccc([N+](=O)[O-])cc2)c2ccccc21 [S-II-61, 1-(2-aminoethyl)-3-(3-(4-nitrophenyl)propylidene)indolin-2-one]	–	–	–
920 ± 40 nM	COc1ccc(CCC=C2C(=O)N(CCN)c3ccccc32)cc1 [S-II-71, 1-(2-aminoethyl)-3-(3-(4-methoxyphenyl)propylidene)indolin-2-one]	–	–	apoptotic effects in U937 cells (U937 cells): induced both early and late apoptotic effect; inhibition of Raf/MEK/ERK and PI3K/Akt signaling pathways [2]: inhibit
950 ± 110 nM	CCOc1ccc(CCC=C2C(=O)N(CCN)c3ccccc32)cc1 [S-II-102, 1-(2-aminoethyl)-3-(3-(4-ethoxyphenyl)propylidene)indolin-2-one]	–	–	–
3500 ± 300 nM	CCCCCCCOc1ccc(CCC=C2C(=O)N(CCN)c3ccccc32)cc1 [S-II-103, 1-(2-aminoethyl)-3-(3-(4-(heptyloxy)phenyl)propylidene)indolin-2-one]	inhibited SphK2 selectively	did not inhibit SphK1 or inhibited SphK1 to a lesser extent	apoptotic effects in U937 cells (U937 cells): mainly induced late apoptotic effects; inhibition of Raf/MEK/ERK and PI3K/Akt signaling pathways [2]: inhibit
